Data as given in patent publication US4479943A, “3-Demethoxyistamycin B, the 2"-N-formimidoyl derivative thereof and pharmaceutical composition containing same” (Zaidan Hojin Biseibutsu Kagaku Kenkyu Kai, priority 1982, dated 1984).
In brackets after ≈: the same amount, converted by molar mass.

Tests used:
[1] = tested on: Pseudomonas aeruginosa ROS 134/PU21; test: Antibacterial MIC, standard serial dilution; assay type: cell-based; details: nutrient agar, 37° C., 17 hours, as free base
[2] = tested on: Providencia sp. Pv16; test: Antibacterial MIC, standard serial dilution; assay type: cell-based; details: nutrient agar, 37° C., 17 hours, as free base
[3] = tested on: Pseudomonas aeruginosa GN315; test: Antibacterial MIC, standard serial dilution; assay type: cell-based; details: nutrient agar, 37° C., 17 hours, as free base
[4] = tested on: Shigella dysenteriae JS11910; test: Antibacterial MIC, standard serial dilution; assay type: cell-based; details: nutrient agar, 37° C., 17 hours, as free base
[5] = tested on: Bacillus anthracis; assay type: cell-based; details: nutrient agar, 37° C., 17 hours, as free base
[6] = tested on: Pseudomonas aeruginosa PST1; test: Antibacterial MIC, standard serial dilution; assay type: cell-based; details: nutrient agar, 37° C., 17 hours, as free base
[7] = tested on: Pseudomonas aeruginosa TI-13; test: Antibacterial MIC, standard serial dilution; assay type: cell-based; details: nutrient agar, 37° C., 17 hours, as free base
[8] = tested on: Escherichia coli K-12 R388; test: Antibacterial MIC, standard serial dilution; assay type: cell-based; details: nutrient agar, 37° C., 17 hours, as free base
[9] = tested on: Serratia marcescens; test: Antibacterial MIC, standard serial dilution; assay type: cell-based; details: nutrient agar, 37° C., 17 hours, as free base
[10] = tested on: Pseudomonas aeruginosa H11; test: Antibacterial MIC, standard serial dilution; assay type: cell-based; details: nutrient agar, 37° C., 17 hours, as free base
[11] = tested on: Escherichia coli K-12 J5R11-2; test: Antibacterial MIC, standard serial dilution; assay type: cell-based; details: nutrient agar, 37° C., 17 hours, as free base
[12] = tested on: Pseudomonas aeruginosa K-Ps 102; test: Antibacterial MIC, standard serial dilution; assay type: cell-based; details: nutrient agar, 37° C., 17 hours, as free base
[13] = tested on: Escherichia coli K-12 ML1630; test: Antibacterial MIC, standard serial dilution; assay type: cell-based; details: nutrient agar, 37° C., 17 hours, as free base
[14] = tested on: Staphylococcus aureus Ap01; test: Antibacterial MIC, standard serial dilution; assay type: cell-based; details: nutrient agar, 37° C., 17 hours, as free base
[15] = tested on: Micrococcus flavus FDA 16; test: Antibacterial MIC, standard serial dilution; assay type: cell-based; details: nutrient agar, 37° C., 17 hours, as free base
[16] = tested on: Pseudomonas aeruginosa 21-75; test: Antibacterial MIC, standard serial dilution; assay type: cell-based; details: nutrient agar, 37° C., 17 hours, as free base
[17] = tested on: Proteus vulgaris 0X19; test: Antibacterial MIC, standard serial dilution; assay type: cell-based; details: nutrient agar, 37° C., 17 hours, as free base
[18] = tested on: Sarcina lutea PCI 1001; test: Antibacterial MIC, standard serial dilution; assay type: cell-based; details: nutrient agar, 37° C., 17 hours, as free base
[19] = tested on: Escherichia coli NIHJ; test: Antibacterial MIC, standard serial dilution; assay type: cell-based; details: nutrient agar, 37° C., 17 hours, as free base
[20] = tested on: Klebsiella pneumoniae 22#3038; test: Antibacterial MIC, standard serial dilution; assay type: cell-based; details: nutrient agar, 37° C., 17 hours, as free base
[21] = tested on: Proteus rettgeri GN311; test: Antibacterial MIC, standard serial dilution; assay type: cell-based; details: nutrient agar, 37° C., 17 hours, as free base
[22] = tested on: Shigella sonnei JS11746; test: Antibacterial MIC, standard serial dilution; assay type: cell-based; details: nutrient agar, 37° C., 17 hours, as free base
[23] = tested on: Escherichia coli JR66/W677; test: Antibacterial MIC, standard serial dilution; assay type: cell-based; details: nutrient agar, 37° C., 17 hours, as free base
[24] = tested on: Escherichia coli K-12 ML1629; test: Antibacterial MIC, standard serial dilution; assay type: cell-based; details: nutrient agar, 37° C., 17 hours, as free base
[25] = tested on: Mycobacterium smegmatis ATCC 607; test: Antibacterial MIC, standard serial dilution; assay type: cell-based; details: nutrient agar, 37° C., 17 hours, as free base
[26] = tested on: Escherichia coli K-12; test: Antibacterial MIC, standard serial dilution; assay type: cell-based; details: nutrient agar, 37° C., 17 hours, as free base
[27] = tested on: Bacillus subtilis PCI 219; test: Antibacterial MIC, standard serial dilution; assay type: cell-based; details: nutrient agar, 37° C., 17 hours, as free base
[28] = tested on: Escherichia coli JR225; test: Antibacterial MIC, standard serial dilution; assay type: cell-based; details: nutrient agar, 37° C., 17 hours, as free base
[29] = tested on: Klebsiella pneumoniae PCI602; test: Antibacterial MIC, standard serial dilution; assay type: cell-based; details: nutrient agar, 37° C., 17 hours, as free base
[30] = tested on: Pseudomonas aeruginosa 99; test: Antibacterial MIC, standard serial dilution; assay type: cell-based; details: nutrient agar, 37° C., 17 hours, as free base
[31] = tested on: Staphylococcus epidermidis 109; test: Antibacterial MIC, standard serial dilution; assay type: cell-based; details: nutrient agar, 37° C., 17 hours, as free base
[32] = tested on: bacteria; details: in words; earlier work; cited from earlier work
[33] = tested on: Proteus rettgeri GN466; test: Antibacterial MIC, standard serial dilution; assay type: cell-based; details: nutrient agar, 37° C., 17 hours, as free base
[34] = tested on: Pseudomonas aeruginosa No. 12; test: Antibacterial MIC, standard serial dilution; assay type: cell-based; details: nutrient agar, 37° C., 17 hours, as free base
[35] = tested on: Pseudomonas maltophilia GN 907; test: Antibacterial MIC, standard serial dilution; assay type: cell-based; details: nutrient agar, 37° C., 17 hours, as free base
[36] = tested on: Staphylococcus aureus FDA 209P; test: Antibacterial MIC, standard serial dilution; assay type: cell-based; details: nutrient agar, 37° C., 17 hours, as free base
[37] = tested on: Escherichia coli K-12 ML1410; test: Antibacterial MIC, standard serial dilution; assay type: cell-based; details: nutrient agar, 37° C., 17 hours, as free base
[38] = tested on: Pseudomonas aeruginosa H9; test: Antibacterial MIC, standard serial dilution; assay type: cell-based; details: nutrient agar, 37° C., 17 hours, as free base
[39] = tested on: Salmonella typhi T-63; test: Antibacterial MIC, standard serial dilution; assay type: cell-based; details: nutrient agar, 37° C., 17 hours, as free base
[40] = tested on: Serratia sp. SOU; test: Antibacterial MIC, standard serial dilution; assay type: cell-based; details: nutrient agar, 37° C., 17 hours, as free base
[41] = tested on: Serratia sp. 4; test: Antibacterial MIC, standard serial dilution; assay type: cell-based; details: nutrient agar, 37° C., 17 hours, as free base
[42] = tested on: Staphylococcus aureus Smith; test: Antibacterial MIC, standard serial dilution; assay type: cell-based; details: nutrient agar, 37° C., 17 hours, as free base
[43] = tested on: Pseudomonas aeruginosa A3; test: Antibacterial MIC, standard serial dilution; assay type: cell-based; details: nutrient agar, 37° C., 17 hours, as free base
[44] = tested on: Providencia sp. 2991; test: Antibacterial MIC, standard serial dilution; assay type: cell-based; details: nutrient agar, 37° C., 17 hours, as free base
[45] = tested on: Corynebacterium bovis 1810; test: Antibacterial MIC, standard serial dilution; assay type: cell-based; details: nutrient agar, 37° C., 17 hours, as free base
[46] = tested on: Pseudomonas aeruginosa B-13; test: Antibacterial MIC, standard serial dilution; assay type: cell-based; details: nutrient agar, 37° C., 17 hours, as free base
[47] = tested on: Escherichia coli W677; test: Antibacterial MIC, standard serial dilution; assay type: cell-based; details: nutrient agar, 37° C., 17 hours, as free base
[48] = tested on: Bacillus subtilis NRRL B-558; test: Antibacterial MIC, standard serial dilution; assay type: cell-based; details: nutrient agar, 37° C., 17 hours, as free base
[49] = tested on: Bacillus cereus ATCC 10702; test: Antibacterial MIC, standard serial dilution; assay type: cell-based; details: nutrient agar, 37° C., 17 hours, as free base
[50] = tested on: Salmonella enteritidis 1891; test: Antibacterial MIC, standard serial dilution; assay type: cell-based; details: nutrient agar, 37° C., 17 hours, as free base

## CNC[C@@H]1CC[C@@H](N)[C@@H](O[C@H]2[C@H](O)[C@H](N(C)C(=O)CN)[C@@H](OC)C[C@H]2N)O1 [B, istamycin B]
[1]
  MIC: > 100 µg/mL
[2]
  MIC: 1.56 µg/mL (≈ 4.01 µM)
[3]
  MIC: 50 µg/mL (≈ 128 µM)
[4]
  MIC: 3.13 µg/mL (≈ 8.04 µM)
[5]
  MIC: 0.78 µg/mL (≈ 2 µM)
[6]
  MIC: 50 µg/mL (≈ 128 µM)
[7]
  MIC: 50 µg/mL (≈ 128 µM)
[8]
  MIC: 0.78 µg/mL (≈ 2 µM)
[9]
  MIC: 1.56 µg/mL (≈ 4.01 µM)
[10]
  MIC: 100 µg/mL (≈ 257 µM)
[11]
  MIC: 1.56 µg/mL (≈ 4.01 µM)
[12]
  MIC: 50 µg/mL (≈ 128 µM)
[13]
  MIC: 3.13 µg/mL (≈ 8.04 µM)
[14]
  MIC: 0.78 µg/mL (≈ 2 µM)
[15]
  MIC: 12.5 µg/mL (≈ 32.1 µM)
[16]
  MIC: 100 µg/mL (≈ 257 µM)
[17]
  MIC: 0.39 µg/mL (≈ 1 µM)
[18]
  MIC: 0.39 µg/mL (≈ 1 µM)
[19]
  MIC: 0.39 µg/mL (≈ 1 µM)
[20]
  MIC: 1.56 µg/mL (≈ 4.01 µM)
[21]
  MIC: 0.78 µg/mL (≈ 2 µM)
[22]
  MIC: 0.78 µg/mL (≈ 2 µM)
[23]
  MIC: 1.56 µg/mL (≈ 4.01 µM)
[24]
  MIC: 1.56 µg/mL (≈ 4.01 µM)
[25]
  MIC: 0.78 µg/mL (≈ 2 µM)
[26]
  MIC: 0.78 µg/mL (≈ 2 µM)
[27]
  MIC: 0.39 µg/mL (≈ 1 µM)
[28]
  MIC: 1.56 µg/mL (≈ 4.01 µM)
[29]
  MIC: 3.13 µg/mL (≈ 8.04 µM)
[30]
  MIC: 100 µg/mL (≈ 257 µM)
[31]
  MIC: 0.39 µg/mL (≈ 1 µM)
[32]
  antibacterial activity: higher antibacterial activity than istamycin A
[33]
  MIC: 0.78 µg/mL (≈ 2 µM)
[34]
  MIC: 50 µg/mL (≈ 128 µM)
[35]
  MIC: 100 µg/mL (≈ 257 µM)
[36]
  MIC: 0.39 µg/mL (≈ 1 µM)
[37]
  MIC: 3.13 µg/mL (≈ 8.04 µM)
[38]
  MIC: 50 µg/mL (≈ 128 µM)
[39]
  MIC: 0.39 µg/mL (≈ 1 µM)
[40]
  MIC: 25 µg/mL (≈ 64.2 µM)
[41]
  MIC: 50 µg/mL (≈ 128 µM)
[42]
  MIC: 0.39 µg/mL (≈ 1 µM)
[43]
  MIC: 1.56 µg/mL (≈ 4.01 µM)
[44]
  MIC: 3.13 µg/mL (≈ 8.04 µM)
[45]
  MIC: 0.39 µg/mL (≈ 1 µM)
[46]
  MIC: > 100 µg/mL
[47]
  MIC: 0.78 µg/mL (≈ 2 µM)
[48]
  MIC: 0.39 µg/mL (≈ 1 µM)
[49]
  MIC: 6.25 µg/mL (≈ 16 µM)
[50]
  MIC: 3.13 µg/mL (≈ 8.04 µM)
